Measured values taken from patent publication US20070213283A1, “Macrolides substituted at the 4"-position” (priority 2003, published 2007).
Where a name gives a salt, the structure may show the parent alone. Read-outs that look alike come from different tables or passages of the source.

Columns and labels:
Experiment in all cases: MIC, standard broth dilution method in microtitre
Type in all cases: cell-based
H. influenzae ATCC 49247 = settings: Haemophilus influenzae, ATCC49247
Method: (§1) Using a standard broth dilution method in microtitre, compounds were tested for antibacterial activity. The compounds in the above examples gave minimum inhibitory concentrations (MICs) less than 1 microgram per millilitre against erythromycin-sensitive and erythromycin-resistant strains of Streptococcus pneumoniae and Streptococcus pyogenes.
(§2) In addition, the MIC (μg/mL) of test compounds against various organisms was determined including:
(§3) S. aureus Smith ATCC 13709, S. pneumoniae SP030, S. pyogenes 3565, E. faecalis ATCC 29212, H. influenzae ATCC 49247, M. catarrhalis ATCC 23246.

S. pyogenes 3565 = settings: Streptococcus pyogenes
Method: as §1, §2, §3

[1] = tested on: S. aureus Smith ATCC 13709; settings: Staphylococcus aureus, ATCC13709
Method: as §1, §2, §3

[2] = tested on: M. catarrhalis ATCC 23246; settings: Moraxella catarrhalis, ATCC23246
Method: as §1, §2, §3

E. faecalis ATCC 29212 = settings: Enterococcus faecalis, ATCC29212
Method: as §1, §2, §3

S. pneumoniae SP030 = settings: Streptococcus pneumoniae
Method: as §1, §2, §3

[3] = tested on: erythromycin resistant strains of Streptococcus pyogenes
Method: as §1

[4] = tested on: erythromycin resistant strains of Streptococcus pneumoniae
Method: as §1

[5] = H. influenzae ATCC 49247, broth dilution in microtitre, read-out: MIC

## CC[C@H]1OC(=O)[C@H](C)[C@@H](O[C@H]2C[C@@](C)(OC)[C@@H](OC(=O)CCNCCSc3ccc4c(=O)c(C(=O)O)cn(CC)c4c3)[C@H](C)O2)[C@@H](C)[C@@H](O[C@@H]2O[C@H](C)C[C@H](N(C)C)[C@H]2O)[C@](C)(O)C[C@@H](C)CN(C)[C@H](C)[C@@H](O)[C@]1(C)O [Example 1, 4″-O-{3-[2-(3-Carboxy-1-ethyl-4-oxo-1,4-dihydro-7-quinolinylsulfanyl)ethylamino]propionyl}-azithromycin]
H. influenzae ATCC 49247; [5]
  MIC: ≤ 2 mg/L
S. pyogenes 3565
  MIC: ≤ 1 mg/L
[1]
  MIC: ≤ 1 mg/L
[2]
  MIC: ≤ 2 mg/L
E. faecalis ATCC 29212
  MIC: ≤ 1 mg/L
S. pneumoniae SP030
  MIC: ≤ 1 mg/L

## CC[C@@H]1OC(=O)[C@H](C)[C@@H](O[C@H]2C[C@@](C)(OC)[C@@H](OC(=O)CCNCCSc3ccc4c(=O)c(C(=O)O)cn(CC)c4c3)[C@@H](C)O2)[C@@H](C)[C@H](O[C@H]2O[C@@H](C)C[C@@H](N(C)C)[C@H]2O)[C@](C)(O)C[C@H](C)CN(C)[C@H](C)[C@H]2OC(=O)O[C@]12C [Example 2, 4″-O-{3-[2-(3-Carboxy-1-ethyl-4-oxo-1,4-dihydro-7-quinolinylsulfanyl)ethylamino]propionyl}-azithromycin-11,12-carbonate]
H. influenzae ATCC 49247; [5]
  MIC: ≤ 2 mg/L
S. pyogenes 3565
  MIC: ≤ 1 mg/L
[1]
  MIC: ≤ 1 mg/L
[2]
  MIC: ≤ 2 mg/L
E. faecalis ATCC 29212
  MIC: ≤ 1 mg/L
S. pneumoniae SP030
  MIC: ≤ 1 mg/L

## CC[C@@H]1OC(=O)[C@H](C)[C@H](O[C@H]2C[C@@](C)(OC)[C@@H](OC(=O)CCNCCSc3ccc4c(=O)c(C(=O)O)cn(CC)c4c3)[C@@H](C)O2)[C@@H](C)[C@H](OC2O[C@@H](C)C[C@@H](N(C)C)[C@H]2O)[C@@](C)(OC)C[C@H](C)C(=O)[C@H](C)[C@@H](O)[C@]1(C)O (stereo partly drawn) [Example 3, 4″-O-{3-[2-(3-Carboxy-1-ethyl-4-oxo-1,4-dihydro-7-quinolinylsulfanyl)ethylamino]propionyl}-6-O-methyl-erythromycin A]
H. influenzae ATCC 49247; [5]
  MIC: ≤ 2 mg/L
[2]
  MIC: ≤ 2 mg/L

## CC[C@@H]1OC(=O)[C@H](C)[C@H](O[C@H]2C[C@](C)(OC)[C@@H](OC(=O)CCNCCSc3cnc4c(c3)c(=O)c(C(=O)O)cn4CC)[C@@H](C)O2)[C@@H](C)[C@H](O[C@H]2O[C@@H](C)C[C@@H](N(C)C)[C@H]2O)[C@@](C)(O)C[C@H](C)CN(C)[C@H](C)[C@@H](O)[C@@]1(C)O [Example 4, 4″-O-{3-[2-(3-Carboxy-1-ethyl-4-oxo-1,4-dihydro-[1,8]naphthyridin-6-ylsulfanyl)ethylamino]propionyl}-azithromycin tris trifluoroacetate salt]
H. influenzae ATCC 49247; [5]
  MIC: ≤ 2 mg/L
S. pyogenes 3565
  MIC: ≤ 1 mg/L
[1]
  MIC: ≤ 1 mg/L
[2]
  MIC: ≤ 2 mg/L
E. faecalis ATCC 29212
  MIC: ≤ 1 mg/L
S. pneumoniae SP030
  MIC: ≤ 1 mg/L

## CC[C@@H]1OC(=O)[C@H](C)[C@H](O[C@@H]2C[C@](C)(OC)[C@H](OC(=O)CCNCCSc3cnc4c(c3)c(=O)c(C(=O)O)cn4CC)[C@H](C)O2)[C@@H](C)[C@H](O[C@@H]2O[C@H](C)C[C@H](N(C)C)[C@@H]2O)[C@@](C)(OC)C[C@H](C)C(=O)[C@H](C)[C@@H](O)[C@]1(C)O [Example 5, 4″-O-{3-[2-(3-Carboxy-1-ethyl-4-oxo-1,4-dihydro-[1,8]naphthyridin-6-ylsulfanyl)ethylamino]propionyl}-6-O-methyl-erythromycin A monoformate salt]
[3]
  MIC: ≤ 0.25 mg/L
[4]
  MIC: ≤ 0.25 mg/L
S. pyogenes 3565
  MIC: ≤ 1 mg/L
[1]
  MIC: ≤ 1 mg/L
E. faecalis ATCC 29212
  MIC: ≤ 1 mg/L
S. pneumoniae SP030
  MIC: ≤ 1 mg/L

## CC[C@@H]1OC(=O)[C@H](C)[C@H](O[C@@H]2C[C@](C)(O)[C@H](OC(=O)CCNCCSc3ccc4c(c3)c(=O)c(C(=O)OC)cn4CC)[C@H](C)O2)[C@@H](C)[C@H](O[C@@H]2O[C@H](C)C[C@H](N(C)C)[C@@H]2O)[C@](C)(OC)C[C@H](C)C(=O)[C@H](C)[C@@H](O)[C@]1(C)O [Example 7, 4″-O-{3-[2-(3-Carboxyl-1-ethyl-4-oxo-1,4-dihydro-6-quinolinylsulfanyl)ethylamino]propionyl}-6-O-methyl-erythromycin A methyl ester]
[3]
  MIC: ≤ 0.25 mg/L
[4]
  MIC: ≤ 0.25 mg/L
S. pyogenes 3565
  MIC: ≤ 1 mg/L
[1]
  MIC: ≤ 1 mg/L
E. faecalis ATCC 29212
  MIC: ≤ 1 mg/L
S. pneumoniae SP030
  MIC: ≤ 1 mg/L

## CC[C@@H]1OC(=O)[C@H](C)[C@H](O[C@@H]2O[C@H](C)[C@H](OC(=O)CCNCCSc3ccc4c(c3)c(=O)c(C(=O)O)cn4CC)[C@@](C)(OC)O2)[C@@H](C)[C@H](O[C@H]2O[C@@H](C)C[C@@H](N(C)C)[C@H]2O)[C@](C)(OC)C[C@H](C)C(=O)[C@@H](C)[C@@H]2NC(=O)O[C@@]12C [Example 9, 4″-O-{3-[2-(3-Carboxy-1-ethyl-4-oxo-1,4-dihydro-quinolinylsulfanyl)ethylamino]propionyl}-6-O-methyl-11-desoxy-11-(R)amino-erythromycin A11,12-carbamate bis trifluoroacetate salt]
[3]
  MIC: ≤ 0.25 mg/L
[4]
  MIC: ≤ 0.25 mg/L
H. influenzae ATCC 49247
  MIC: ≤ 2 mg/L
S. pyogenes 3565
  MIC: ≤ 1 mg/L
[1]
  MIC: ≤ 1 mg/L
[2]
  MIC: ≤ 2 mg/L
E. faecalis ATCC 29212
  MIC: ≤ 1 mg/L
S. pneumoniae SP030
  MIC: ≤ 1 mg/L

## CC[C@@H]1OC(=O)[C@H](C)[C@H](O[C@@H]2C[C@](C)(OC)[C@H](OC(=O)CCNCCOc3ccc4c(c3)c(=O)c(C(=O)O)cn4CC)[C@H](C)O2)[C@@H](C)[C@H](O[C@@H]2O[C@H](C)C[C@H](N(C)C)[C@@H]2O)[C@](C)(OC)C[C@H](C)C(=O)[C@H](C)[C@@H](O)[C@]1(C)O [Example 15, 4″-O-{3-[2-(3-Carboxy-1-ethyl-4-oxo-1,4-dihydro-6-quinolinyloxy)ethylamino]propionyl}-6-O-methyl-erythromycin A monoformate salt]
[3]
  MIC: ≤ 0.25 mg/L
[4]
  MIC: ≤ 0.25 mg/L

## CC[C@H]1OC(=O)[C@H](C)[C@@H](O[C@H]2C[C@@](C)(OC)[C@@H](OC(=O)CCOCCOc3ccc4c(c3)c(=O)c(C(=O)O)cn4C3CC3)[C@H](C)O2)[C@H](C)[C@@H](O[C@@H]2O[C@H](C)C[C@H](N(C)C)[C@H]2O)[C@](C)(O)C[C@@H](C)CN(C)[C@H](C)[C@H]2OC(=O)O[C@@]21C [Example 26, 4″-O-{3-[2-(3-Carboxy-1-cyclopropyl-4-oxo-1,4-dihydro-quinolin-6-yloxy)-ethoxy]-propionyl}-azithromycin11,12-carbonate]
H. influenzae ATCC 49247; [5]
  MIC: ≤ 2 mg/L
S. pyogenes 3565
  MIC: ≤ 1 mg/L
[1]
  MIC: ≤ 1 mg/L
[2]
  MIC: ≤ 2 mg/L
E. faecalis ATCC 29212
  MIC: ≤ 1 mg/L
S. pneumoniae SP030
  MIC: ≤ 1 mg/L

## CC[C@H]1OC(=O)[C@H](C)[C@@H](O[C@H]2C[C@@](C)(OC)[C@@H](OC(=O)CCOCCOc3cc4c(=O)c(C(=O)OCOC(=O)C(C)(C)C)cn(C5CC5)c4cc3Cl)[C@H](C)O2)[C@H](C)[C@@H](O[C@@H]2O[C@H](C)C[C@H](N(C)C)[C@H]2O)[C@](C)(O)C[C@@H](C)CN(C)[C@H](C)[C@@H](O)[C@]1(C)O [Example 28, 4″-O-(3-{2-[7-chloro-1-cyclopropyl-3-(2,2-dimethyl-propionyloxymethoxycarbonyl)-4-oxo-1,4-dihydro-quinolin-6-yloxy]-ethoxy}-propionyl)-azithromycin]
[3]
  MIC: ≤ 0.25 mg/L
[4]
  MIC: ≤ 0.25 mg/L
S. pyogenes 3565
  MIC: ≤ 1 mg/L
[1]
  MIC: ≤ 1 mg/L
E. faecalis ATCC 29212
  MIC: ≤ 1 mg/L
S. pneumoniae SP030
  MIC: ≤ 1 mg/L

## CC[C@H]1OC(=O)[C@H](C)[C@@H](OC2C[C@@](C)(OC)[C@@H](OC(=O)CCOCCOc3cc4c(=O)c(C(=O)O)cn(C5CC5)c4cc3Cl)[C@H](C)O2)[C@H](C)[C@@H](O[C@@H]2O[C@H](C)C[C@H](N(C)C)[C@H]2O)[C@](C)(O)C[C@@H](C)CN(C)[C@H](C)[C@@H](OC)[C@]1(C)O (stereo partly drawn) [Example 34, 4″-O-{3-[2-(3-Carboxy-7-chloro-1-cyclopropyl-4-oxo-1,4-dihydro-quinolin-6-yloxy)-ethoxy]-propionyl}-11-O-methyl-azithromycin]
H. influenzae ATCC 49247; [5]
  MIC: ≤ 2 mg/L
S. pyogenes 3565
  MIC: ≤ 1 mg/L
[1]
  MIC: ≤ 1 mg/L
[2]
  MIC: ≤ 2 mg/L
E. faecalis ATCC 29212
  MIC: ≤ 1 mg/L
S. pneumoniae SP030
  MIC: ≤ 1 mg/L

## CC[C@H]1OC(=O)[C@H](C)[C@@H](OC2C[C@@](C)(OC)[C@@H](OC(=O)CCOCCOc3ccc4c(c3)c(=O)c(C(=O)O)cn4C3CC3)[C@H](C)O2)[C@H](C)[C@@H](OC2O[C@H](C)C[C@H](N(C)C)[C@H]2O)[C@](C)(O)C[C@@H](C)CN(C)[C@H](C)[C@@H](OC)[C@]1(C)O (stereo partly drawn) [Example 35, 4″-O-{3-[2-(3-Carboxy-1-cyclopropyl-4-oxo-1,4-dihydro-quinolin-6-yloxy)-ethoxy]-propionyl}-11-O-methyl-azithromycin]
H. influenzae ATCC 49247; [5]
  MIC: ≤ 2 mg/L
S. pyogenes 3565
  MIC: ≤ 1 mg/L
[1]
  MIC: ≤ 1 mg/L
[2]
  MIC: ≤ 2 mg/L
E. faecalis ATCC 29212
  MIC: ≤ 1 mg/L
S. pneumoniae SP030
  MIC: ≤ 1 mg/L

## CC[C@H]1OC(=O)[C@H](C)[C@@H](O[C@H]2C[C@@](C)(OC)[C@@H](OC(=O)CCOCCNc3cc4c(cc3F)c(=O)c(C(=O)O)cn4C3CC3)[C@H](C)O2)[C@H](C)[C@@H](O[C@@H]2O[C@H](C)C[C@H](N(C)C)[C@H]2O)[C@](C)(O)C[C@@H](C)CN(C)[C@H](C)[C@@H](O)[C@]1(C)O [Example 40, 4″-O-{3-[2-(3-Carboxy-1-cyclopropyl-6-fluoro-4-oxo-1,4-dihydro-quinolin-7-ylamino)ethoxy]propionyl}-azithromycin]
H. influenzae ATCC 49247; [5]
  MIC: ≤ 2 mg/L
S. pyogenes 3565
  MIC: ≤ 1 mg/L
[1]
  MIC: ≤ 1 mg/L
[2]
  MIC: ≤ 2 mg/L
E. faecalis ATCC 29212
  MIC: ≤ 1 mg/L
S. pneumoniae SP030
  MIC: ≤ 1 mg/L
